Non-standard residues stand in square brackets, D forms with d. Residues, ends and D or L forms follow the SMILES beside them. Orn = NCCC[C@H](N)C(=O)O

The subject of series [1] is human leukocytes. In words: Cytotoxic activity against human leukocytes. The settings on record: for toxic effect on human blood leukocytes (in words): concentrations of up to 1 mM, 3 h. The procedure:
Total leukocytes were isolated from human blood by unforced sedimentation using freshly collected venous blood from a healthy donor.
Blood (10 mL) added with 10 units/mL heparin was exposed for 2.5 h in the dark at a temperature of 15 to 18° C. A light-colored liquid supernatant (4 mL) was collected over the layer of sedimenting erythrocytes, washed three times with balanced Hanks's salt solution, and resuspended in the RPMI-1640 medium (added with 8% fetal bovine serum, 2 mM L-glutamine, and 10 mM HEPES; hereinafter, the complete medium).
The concentrations of leukocytes and erythrocytes in the suspension were determined by counts in Goryachev's chamber, after which the suspension was adjusted to a leukocyte concentration of (1.0±0.1)×10^6 cells/mL with the complete medium.
To determine the cytotoxicity of the tested compounds for human leukocytes, the cell suspension was transferred to wells of sterile 96-well plates, tested compounds were added with serial twofold dilutions (the range of tested concentrations was from 3.2 to 100 μM for GrD and gramicidin S; from 8 to 500 μM for compound XIII; and from 8 to 1000 μM for compounds V, VI, VII, VIII, IX, X, XI, XIV, XV, XIX, and Hem), and the mixture was carefully stirred. The experiment was performed in two replicas.
As controls served cells added with an equivalent amount of the solvent in which tested compounds were prepared, namely: water for compounds VII and X; an aqueous solution of DMSO for compounds V, VI, VIII, and IX; and DMSO for GrD, gramicidin S, Hem, XI, XIII, XIV, XV, and XIX. An additional control was an additive-free leukocyte suspension.
Cells were incubated with tested compounds for 3 h (37° C., 5% CO2, 100% humidity). Leukocyte death values were quantified using fluorescence microscopy. Staining with propidium iodide (it permeates only into dead cells nuclei) and Hoechst 33342 (it stains all nuclei) was used to recognize dead and living cells. Cells were incubated for 15 min in plates with propidium iodide and Hoechst 33342 (37° C., 5% CO2), and then the plates were placed under a microscope for analysis.
The dead cell fraction was derived from the fluorescence images of cells obtained in the blue (Hoechst 33342) and red (propidium iodide) spectral ranges using an Axio Observer (Zeiss, Germany) fluorescence microscope equipped with a 10× objective lens (Plan-Neofluar 10×/0.3). The following sets of fluorescence filters were used. For propidium iodide: a 530/585-nm bandpass excitation filter, a 600-nm cut-off dichroic minor, and a 615-nm longpass barrier filter for analysis. For Hoechst 33342: a 359/372-nm bandpass excitation filter, a 395-nm cut-off dichroic mirror, and a 397-nm longpass barrier filter for analysis.
A digital camera recorded three types of cell images: (a) an image in the transmitted white light; (b) a blue fluorescence image obtained with UV excitation, and (c) a red fluorescence image obtained with green light excitation. At least four fields of view were photographed per well in various regions of a well.

Series [2] concerns Cryptococcus neoformans No. 3465. In words: Antifungal activity, culture growth with pH indicator. Set-up: key: (−) No growth; the indicator is blue; (±) Weak growth; the indicator is yellow, but the precipitate of grown cells looks as a diffuse spot; (+) Strong growth; the indicator is yellow, and the cell precipitate looks as a compact spot. In kind it is cell-based. The procedure: (§1) The subjects of action were Cryptococcus neoformans No. 3465 museum strain cells and Candida albicans No. 927 museum strain cells grown for one day on a glucose-peptone-yeast medium at 32° C. The reference compounds were the following antimycotics: pimafucin, amphotericin, and fluconazole.
(§2) Experiments were carried out on round-bottomed 96-well plates (Lenmedpolimer) in two replicas. To the first column (0), added was 10 μL of the stock solution of a water-soluble agent with concentrations of 10^−2 to 10^−3 mol/L; to the second column, added was also the same 10 μL plus 10 μL of the solvent corresponding to the given compound, suspended, 10 μL was transferred to the next well, and so on to the 8th well of the row. Stock solutions of water-insoluble compounds of general formula (I) (compounds V, VIII, XII, XIII, XIV, and hemin) were prepared in DMSO and were diluted with DMSO and the medium. DMSO concentrations in the reaction mixture in a well were ≦5%.
(§3) Then, to every well added was 190 μL of a Cr. neoformans cell culture suspension in a synthetic nutritional medium (so that the final cell concentration was approximately 10^3 CFU/mL), this medium containing Bromocresol Blue as a pH-indicator (pH: 5.5; indicator color: blue). As pH reduced to 4.5, the indicator in the culture changed its color to yellow, thereby indicating fungal cell growth. The synthetic medium comprised the following components: salts, amino acids, microelements, vitamins, an antibiotic, and glucose (30 components altogether) [Yarrow, D., “Methods for the Isolation, Maintenance and Identification of Yeasts,” in: The Yeasts. A Taxonomic Study, Ed. by Kurtsman, C. P, and Fell, M., Elsevier, 1998, pp. 77-100]. After being inoculated with a Cr. neoformans cell suspension, the plate was incubated at 32° C. for 1 h with stirring, then transferred to a stationary thermostat and incubated for two and five days at 27° C. After being inoculated with a C. albicans cell suspension, the plates were incubated for 1 h at 32° C. with stirring, then transferred to a stationary thermostat and incubated for one and four days at 27° C.

Series [3] concerns Candida albicans No. 927. The description is as above. In kind it is cell-based. Set-up: key to Test culture growth at various dilutions of the agent: (−) No growth; the indicator is blue; (±) Weak growth; the indicator is yellow, but the precipitate of grown cells looks as a diffuse spot; (+) Strong growth; the indicator is yellow, and the cell precipitate looks as a compact spot. On the procedure: as §1, §2, §3

Where [4] appears, read: dilution : 16 of 5.00 × 10^−4 M.
The mark [5] stands for this setting: dilution : 32 of 5.00 × 10^−4 M.
Where [6] appears, read: dilution : 64 of 5.00 × 10^−4 M.
[7] abbreviates: dilution : 128 of 5.00 × 10^−4 M.

As to `C=CC1=C(C)c2cc3[n-]c(cc4nc(cc5[n-]c(cc1n2)c(C)c5CCC(=O)NCCC(=O)N[C@@H](Cc1c[nH]cn1)C(=O)O)C(CCC(=O)NCCC(=O)N[C@@H](Cc1c[nH]cn1)C(=O)O)=C4C)c(C)c3C=C.[Cl-].[Fe+3]` [Compound X], in series [1] (1 mM, 3 h incubation), the “Death of leukocytes in the presence of 1 mM of compound” value came to 4.9 ± 0.3%. Further, the “toxic effect on human blood leukocytes (in words)” value in series [1] was “did not cause the death”.

For the compound `OC(Cn1cncn1)(Cn1cncn1)c1ccc(F)cc1F` [Fluconazole, reference compound], the “Test culture growth at various dilutions of the agent on day 2” value (from here on “Test culture growth … on day 2”) in series [2] (dilution 0: 5.00 × 10^−4 M) is listed as “±**”; in series [2] (dilution : 2 of 5.00 × 10^−4 M), “±”; in series [2] (dilution : 4 of 5.00 × 10^−4 M), “±”; in series [2] (dilution : 8 of 5.00 × 10^−4 M) it was “+”; in series [2] (setting [4]) it was “+”; in series [2] (setting [5]) it was “+”. The “Test culture growth … on day 2” value in series [2] (setting [6]) and in series [2] (setting [7]) was “+” in each case.

Turning to `C[C@@H]1[C@H](O)[C@@H](C)/C=C/C=C/C=C/C=C/C=C/C=C/C=C/[C@H](O[C@@H]2O[C@H](C)[C@@H](O)[C@H](N)[C@@H]2O)C[C@@H]2O[C@](O)(C[C@@H](O)C[C@@H](O)[C@H](O)CC[C@@H](O)C[C@@H](O)CC(=O)O[C@H]1C)C[C@H](O)[C@H]2C(=O)O` [Amphotericin B, reference compound], the “Test culture growth … on day 2” value was “−**” in series [2] (dilution 0: 5.00 × 10^−4 M); “−” in series [2] (dilution : 2 of 5.00 × 10^−4 M); “−” in series [2] (dilution : 4 of 5.00 × 10^−4 M); “−” in series [2] (dilution : 8 of 5.00 × 10^−4 M); “−” in series [2] (setting [4]); “−” in series [2] (setting [5]). Also, the “Test culture growth … on day 2” value in series [2] (setting [6]) and in series [2] (setting [7]) was “−” in each case.

For “N^α-[6(7)-(Protohemin IX)-yl]-ArgArgTrpTrpArgPhe-OH ({protohemin IX}-RRWWRF-OH) [Compound XX]”, the “Test culture growth at various dilutions of the agent” value in series [3] (dilution 0: 1 × 10^−4 M), in series [3] (dilution : 2 of 1 × 10^−4 M), in series [3] (dilution : 4 of 1 × 10^−4 M), in series [3] (dilution : 8 of 1 × 10^−4 M), in series [3] (dilution : 16 of 1 × 10^−4 M) and in series [3] (dilution : 32 of 1 × 10^−4 M) was “±” in each case. For the same compound, the “Test culture growth at various dilutions of the agent” value in series [3] (dilution : 64 of 1 × 10^−4 M) was “±”.

Take `C[C@@H]1C/C=C/C=C/C=C/C=C/[C@H](O[C@@H]2O[C@H](C)[C@@H](O)[C@H](N)[C@@H]2O)C[C@@H]2O[C@](O)(C[C@@H](O)C[C@H]3O[C@@H]3/C=C/C(=O)O1)C[C@H](O)[C@H]2C(=O)O` [Pimafucin, reference compound]: the “Test culture growth at various dilutions of the agent” value in series [3] (dilution 0: 1 × 10^−4 M) was “−”; in series [3] (dilution : 2 of 1 × 10^−4 M) it was “−”; in series [3] (dilution : 4 of 1 × 10^−4 M), “−”; in series [3] (dilution : 8 of 1 × 10^−4 M), “−”; in series [3] (dilution : 16 of 1 × 10^−4 M) it was “−”; in series [3] (dilution : 32 of 1 × 10^−4 M) it was “+”. Moreover, in series [3] (dilution : 64 of 1 × 10^−4 M), the “Test culture growth at various dilutions of the agent” value is given as “+”.

On to `CC(C)C[C@@H]1NC(=O)[C@H](CCCN)NC(=O)[C@H](C(C)C)NC(=O)[C@@H]2CCCN2C(=O)[C@@H](Cc2ccccc2)NC(=O)[C@H](CC(C)C)NC(=O)[C@H](CCCN)NC(=O)[C@H](C(C)C)NC(=O)[C@@H]2CCCN2C(=O)[C@@H](Cc2ccccc2)NC1=O` [Gramicidin S, reference compound] (cyclo(L[dF]PV[Orn]L[dF]PV[Orn])), for which the “toxic effect on human blood leukocytes (in words)” value in series [1] is on record as “fully due to the toxic effect of the solvent”.

For the origin of these results see patent US8906897B2, “Antimicrobial agents based on hemin derivatives” (Obschestvo S Ogranichennoi Otvetstvennostiyu …, priority 2009, dated 2014).
